Experimental data taken from ChEMBL document CHEMBL3137667, “[Drug-induced liver injury; fourteenth updated edition of the bibliographic database of liver injuries and related drugs]” (Gastroenterol Clin Biol, 2004).

How the values were obtained:
[1] = Highest frequency of moderate liver toxicity observed during clinical trials, expressed as a percentage. [column '% BIOL' in source]; settings: human
[2] = Highest frequency of acute liver toxicity observed during clinical trials, expressed as a percentage. [column '% AIGUE' in source]; settings: human
[3] = Times to onset, minimal and maximal, observed in the indexed observations. [column 'DELAI' in source]; settings: human
[4] = human, serum
[5] = human, serum; remark: listed apart in the source
[6] = human
[7] = human; remark: listed apart in the source
[8] = human; remark: listed apart in the source
[9] = human, serum, 4383 h
[10] = human; remark: listed apart in the source
[11] = human; remark: listed apart in the source
[12] = human; remark: listed apart in the source
[13] = human; remark: listed apart in the source
[14] = human; remark: listed apart in the source
[15] = human; remark: listed apart in the source
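For Hepatotoxicity (association with vascular disease) in this document: count of indexed literature references reporting vascular liver injury in humans, e.g. peliosis hepatitis, hepatic veno-occlusive disease or Budd-Chiari syndrome.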
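For Hepatotoxicity (benign tumour) in this document: value is a count of indexed literature references citing a benign tumour confirmed by histopathology.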
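For Hepatotoxicity (choleostasis) in this document: human cholestatic liver injury, shown by histopathology or by peak ALT or AST elevation over alkaline phosphatase ratio below 2, value counts indexed literature reports.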
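For Hepatotoxicity (chronic liver disease) in this document: chronic liver injury confirmed by histopathology or persistently raised serum aminotransferase activity beyond 6 months, value given as the count of indexed literature references.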
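For Hepatotoxicity (cirrhosis) in this document: value is a count of indexed literature references reporting cirrhosis confirmed by histopathology.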
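For Hepatotoxicity (cytolytic) in this document: human cytolytic liver injury, shown by histopathology or by a ratio above 5 of peak ALT or AST elevation to alkaline phosphatase elevation, value counts indexed references.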
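For Hepatotoxicity (granulomatous hepatitis) in this document: value is a count of indexed literature references reporting granulomatous liver disease confirmed by histopathology.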
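For Hepatotoxicity (malignant tumour) in this document: malignant tumour confirmed by histopathology, value gives the count of indexed literature references reporting it.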
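For Hepatotoxicity (severe hepatitis) in this document: human clinical data: severe hepatitis, meaning potentially life-threatening liver failure or clinically observed cases, the value counts how many indexed literature references report it.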
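For Hepatotoxicity (steatosis) in this document: steatosis confirmed by histopathology, value is the count of indexed references.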

| SMILES | Hepatotoxicity (moderate) [1] [%] | Hepatotoxicity (acute) [2] [%] | Hepatotoxicity (time to onset) [3] | Hepatotoxicity (moderate) [4] | Hepatotoxicity (acute) [5] | Hepatotoxicity (cytolytic) [6] | Hepatotoxicity (choleostasis) [7] | Hepatotoxicity (severe hepatitis) [8] | Hepatotoxicity (chronic liver disease) [9] | Hepatotoxicity (cirrhosis) [10] | Hepatotoxicity (granulomatous hepatitis) [11] | Hepatotoxicity (association with vascular disease) [12] | Hepatotoxicity (steatosis) [13] | Hepatotoxicity (malignant tumour) [14] | Hepatotoxicity (benign tumour) [15] | Hepatotoxicity (moderate) ([1]; Liver) [%] | Hepatotoxicity (acute) ([2]; Liver) [%] | Hepatotoxicity (severe hepatitis) ([8]; Liver) |
| --- | --- | --- | --- | --- | --- | --- | --- | --- | --- | --- | --- | --- | --- | --- | --- | --- | --- | --- |
| CCN(CC)CCn1c(-c2ccccc2)noc1=N [IMOLAMINE] | 0 | 0 | 2 months | 0 | 0 | 0 | 0 | 0 | 1 | 0 | 0 | 0 | 0 | 0 | 0 |  |  |  |
| CC1Cc2ccccc2N1NC(=O)c1ccc(Cl)c(S(N)(=O)=O)c1 (stereo not given) [INDAPAMIDE] |  |  | 6 months - 5 years | 1 | 4 | 3 | 1 |  | 0 | 0 | 0 | 0 | 0 | 0 | 0 | 0 | 0 | 1 |
| C[C@H](O)C(=O)Nc1c(I)c(C(=O)NC(CO)CO)c(I)c(C(=O)NC(CO)CO)c1I [IOPAMIDOL] | 0 | 0 | 0.5 h | 0 | 1 | 1 | 0 | 1 | 0 | 0 | 0 | 0 | 0 | 0 | 0 |  |  |  |
| CCC(Cc1c(I)cc(I)c(N)c1I)C(=O)O (stereo not given) [IOPANOIC ACID] | 0 | 0 | 1 week | 0 | 1 | 1 | 0 | 0 | 0 | 0 | 0 | 0 | 0 | 0 | 0 |  |  |  |
| COCC(=O)Nc1c(I)c(C(=O)NCC(O)CO)c(I)c(C(=O)N(C)CC(O)CO)c1I (stereo not given) [IOPROMIDE] | 0 | 0 | < 24 h | 0 | 1 | 1 | 0 | 0 | 0 | 0 | 0 | 0 | 0 | 0 | 0 |  |  |  |
| Cc1cc(C(=O)NNCc2ccccc2)no1 [ISOCARBOXAZID] | 0 | 0 | 1 month - 4 months | 1 | 4 | 4 | 2 | 1 | 0 | 0 | 0 | 0 | 0 | 0 | 0 |  |  |  |
| CC(C)[N+](C)(CCC(C(N)=O)(c1ccccc1)c1ccccc1)C(C)C [ISOPROPAMIDE] | 0 | 0 | 3 months | 0 | 1 | 1 | 0 | 0 | 0 | 0 | 0 | 0 | 0 | 0 | 0 |  |  |  |
| CO[C@@H]1[C@@H](O[C@@H]2O[C@H](C)[C@@H](O[C@H]3C[C@@](C)(O)[C@@H](OC(=O)CC(C)C)[C@H](C)O3)[C@H](N(C)C)[C@H]2O)[C@@H](CC=O)C[C@@H](C)[C@@H](O)/C=C/C=C/C[C@@H](C)OC(=O)C[C@H]1OC(C)=O [JOSAMYCIN] | 20 | 0 | 5 days - 2 weeks | 5 | 9 | 6 | 5 | 0 | 0 | 0 | 0 | 0 | 0 | 0 | 0 |  |  |  |
| O=C(c1ccccc1)c1ccc2n1CCC2C(=O)O (stereo not given) [KETOROLAC] | 32 | 1 | 1 day - 10 days | 1 | 1 | 1 | 1 | 0 | 0 | 0 | 0 | 0 | 0 | 0 | 0 |  |  |  |
| N[C@@H](Cc1ccc(O)c(O)c1)C(=O)O [LEVODOPA] | 9 | 3.3 | < 3 months | 1 | 4 | 0 | 1 | 0 | 0 | 0 | 0 | 0 | 1 | 0 | 0 |  |  |  |
| C[C@H]1COc2c(N3CCN(C)CC3)c(F)cc3c(=O)c(C(=O)O)cn1c23.C[C@H]1COc2c(N3CCN(C)CC3)c(F)cc3c(=O)c(C(=O)O)cn1c23.O [LEVOFLOXACIN] | 30 | 0 | 2 days - 3 weeks | 17 | 7 | 6 | 2 | 5 | 0 | 0 | 0 | 0 | 0 | 0 | 0 |  |  |  |
